The values that follow come from patent US20120101100A1 (priority 2008, published 2012).

Molecules are shown by their SMILES. Structures can show the parent of a compound that is named as a salt.

This assay deals with S. aureus GyrB ATPase (Staphylococcus aureus, UniProt P0A0K8). Briefly: S. aureus (SAU) GyrB ATPase inhibition, malachite green phosphate detection (E. coli GyrA + S. aureus GyrB). The settings on record: compound concentration of 1.0 μM unless otherwise noted; average value where assay was carried out more than once; read-out: S. aureus (SAU) GyrB ATPase % Inhibition. In kind it is biochemical. As to the method: Compounds were tested for inhibition of GyrB ATPase activity using an ammonium molybdate/malachite green-based phosphate detection assay (Lanzetta, P. A., L. J. Alvarez, P. S. Reinach, and O. A. Candia, 1979, 100: 95-97). Assays were performed in multiwell plates in 100 μl reactions containing: 50 mM Hepes buffer pH 7.5, 75 mM ammonium acetate, 8.0 mM magnesium chloride, 1.0 mM ethylenediaminetetraacetic acid, 5% glycerol, 2 mM 1,4-Dithio-DL-threitol, 400 nM bovine serum albumin, 5 μg/ml sheared salmon sperm DNA, 1.25 nM E. coli GyrA, 1.25 nM S. aureus GyrB, 500 μM ATP, and compound in dimethylsulfoxide. Reactions were quenched with 150 μl of ammonium molybdate/malachite green detection reagent containing 1.2 mM malachite green hydrochloride, 8.5 mM ammonium molybdate tetrahydrate, and 1 M hydrochloric acid. Plates were read in an absorbance plate reader at 650 nm and percent inhibition values were calculated using dimethylsulfoxide (2%)-containing reactions as 0% inhibition and novobiocin-containing (2 μM) reactions as 100% inhibition controls. Compound potency was based on IC50 measurements determined from reactions performed in the presence of 10 different compound concentrations.
Sequence of S. aureus GyrB ATPase (P0A0K8 whole entry): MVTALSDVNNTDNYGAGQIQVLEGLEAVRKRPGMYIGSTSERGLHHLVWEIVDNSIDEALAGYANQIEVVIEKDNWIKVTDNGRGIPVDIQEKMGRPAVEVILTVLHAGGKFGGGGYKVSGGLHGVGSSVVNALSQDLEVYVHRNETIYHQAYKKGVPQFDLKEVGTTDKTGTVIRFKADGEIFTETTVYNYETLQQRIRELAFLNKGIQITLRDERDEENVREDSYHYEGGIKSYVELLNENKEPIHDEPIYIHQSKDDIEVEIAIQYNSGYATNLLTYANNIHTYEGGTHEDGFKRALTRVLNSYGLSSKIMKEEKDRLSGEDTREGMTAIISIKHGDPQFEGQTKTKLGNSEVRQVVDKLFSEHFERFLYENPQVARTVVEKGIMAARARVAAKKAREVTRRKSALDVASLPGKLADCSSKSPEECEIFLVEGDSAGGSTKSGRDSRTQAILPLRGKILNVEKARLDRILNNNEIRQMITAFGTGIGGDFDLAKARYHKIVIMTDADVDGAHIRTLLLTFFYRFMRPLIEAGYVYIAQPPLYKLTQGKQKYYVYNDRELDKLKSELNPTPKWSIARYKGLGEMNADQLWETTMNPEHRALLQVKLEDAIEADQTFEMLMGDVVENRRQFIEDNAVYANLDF
Sequence of S. aureus GyrB ATPase (P0AES4 whole entry, further chain): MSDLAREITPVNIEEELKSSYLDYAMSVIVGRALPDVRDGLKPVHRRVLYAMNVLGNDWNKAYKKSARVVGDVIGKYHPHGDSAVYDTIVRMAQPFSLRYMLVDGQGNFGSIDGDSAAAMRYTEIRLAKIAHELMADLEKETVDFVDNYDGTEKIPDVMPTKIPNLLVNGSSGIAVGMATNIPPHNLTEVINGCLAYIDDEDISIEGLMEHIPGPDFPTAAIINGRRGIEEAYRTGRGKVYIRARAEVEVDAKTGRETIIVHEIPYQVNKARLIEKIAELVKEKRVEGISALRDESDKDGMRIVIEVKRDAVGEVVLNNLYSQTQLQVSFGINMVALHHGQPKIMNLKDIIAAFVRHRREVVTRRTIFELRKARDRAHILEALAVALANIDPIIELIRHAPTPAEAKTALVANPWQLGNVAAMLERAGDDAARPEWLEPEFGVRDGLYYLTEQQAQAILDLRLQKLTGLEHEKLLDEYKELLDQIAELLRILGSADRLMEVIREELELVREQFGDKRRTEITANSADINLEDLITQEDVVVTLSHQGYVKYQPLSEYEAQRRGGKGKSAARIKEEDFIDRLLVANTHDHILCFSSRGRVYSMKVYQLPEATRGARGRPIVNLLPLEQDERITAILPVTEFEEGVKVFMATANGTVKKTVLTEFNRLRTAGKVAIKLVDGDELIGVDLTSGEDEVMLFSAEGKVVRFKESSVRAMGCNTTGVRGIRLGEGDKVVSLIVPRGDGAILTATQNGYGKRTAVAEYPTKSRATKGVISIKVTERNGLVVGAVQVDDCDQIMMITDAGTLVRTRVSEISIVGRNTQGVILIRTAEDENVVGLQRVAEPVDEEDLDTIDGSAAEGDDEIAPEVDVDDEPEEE
For the compound `CCNC(=O)Nc1cc(-c2nc(C(F)(F)F)cs2)c(-c2cncc(-c3n[nH]c(=O)o3)n2)cn1` [Example 35, 1-ethyl-3-(5-(6-(5-oxo-4,5-dihydro-1,3,4-oxadiazol-2-yl)pyrazin-2-yl)-4-(4-(trifluoromethyl)thiazol-2-yl)pyridin-2-yl)urea], the inhibition at 1 µM came out at 103%.

`CCNC(=O)Nc1cc(-c2nc(C(F)(F)F)cs2)c(-c2nc(-c3ncccn3)c(-c3n[nH]c(=O)o3)s2)cn1` [Example 36, 1-ethyl-3-(5-(5-(5-oxo-4,5-dihydro-1,3,4-oxadiazol-2-yl)-4-(pyrimidin-2-yl)thiazol-2-yl)-4-(4-(trifluoromethyl)thiazol-2-yl)pyridin-2-yl)urea]: the inhibition at 1 µM turned out to be 107%.

In the case of `CCNC(=O)Nc1cc(-c2nc(C(F)(F)F)cs2)c(-c2nc(-c3ncnn3C)c(-c3n[nH]c(=O)o3)s2)cn1` [Example 37, 1-ethyl-3-(5-(4-(1-mcthyl-1H-1,2,4-triazol-5-yl)-5-(5-oxo-4,5-dihydro-1,3,4-oxadiazol-2-yl)thiazol-2-yl)-4-(4-(trifluoromethyl)thiazol-2-yl)pyridin-2-yl)urea], the inhibition at 1 µM was found to be 112%.

As for `CCNC(=O)Nc1cc(-c2nnc(-c3ccncc3)o2)c(-c2cncc(-c3n[nH]c(=O)o3)c2)cn1` [Example 38, 1-ethyl-3-(5′-(5-oxo-4,5-dihydro-1,3,4-oxadiazol-2-yl)-4-(5-(pyridin-4-yl)-1,3,4-oxadiazol-2-yl)-3,3′-bipyridin-6-yl)urea], the inhibition at 1 µM was 108%.

For `CCNC(=O)Nc1cc(-c2nc(-c3ccncc3)cs2)c(-c2cncc(-c3n[nH]c(=O)o3)c2)cn1` [Example 39, N-ethyl-N′-[5′-(5-oxo-4,5-dihydro-1,3,4-oxadiazol-2-yl)-4-(4-pyridin-4-yl-1,3-thiazol-2-yl)-3,3′-bipyridin-6-yl]urea], the inhibition at 1 µM was determined as 102%.

For the compound `CCCCOc1ncc(-c2cnc(NC(=O)NCC)cc2-c2nc(C(F)(F)F)cs2)cc1-c1n[nH]c(=O)o1` [Example 40, 1-(6′-butoxy-5′-(5-oxo-4,5-dihydro-1,3,4-oxadiazol-2-yl)-4-(4-(trifluoromethyl)thiazol-2-yl)-3,3′-bipyridin-6-yl)-3-ethylurea], the inhibition at 1 µM was found to be 117%.

On to `CCCCOc1ncc(-c2cnc(NC(=O)NCC)cc2-c2nc(C(F)(F)F)cs2)cc1-c1nnc(C)o1` [Example 41], for which the inhibition at 1 µM came to 109%.

In the case of `CC(C)NC(=O)Nc1cc(-c2nc(C(F)(F)F)cs2)c(-c2cncc(-c3n[nH]c(=O)o3)c2)cn1` [Example 42, 1-isopropyl-3-(5′-(5-oxo-4,5-dihydro-1,3,4-oxadiazol-2-yl)-4-(4-(trifluoromethyl)thiazol-2-yl)-3,3′-bipyridin-6-yl)urea], the inhibition at 1 µM came out at 106%.

`CCCNC(=O)Nc1cc(-c2nc(C(F)(F)F)cs2)c(-c2cncc(-c3n[nH]c(=O)o3)c2)cn1` [Example 44, 1-(5′-(5-oxo-4,5-dihydro-1,3,4-oxadiazol-2-yl)-4-(4-(trifluoromethyl)thiazol-2-yl)-3,3′-bipyridin-6-yl)-3-propylurea]: the inhibition at 1 µM came out at 96%.

Regarding `O=C(Nc1cc(-c2nc(C(F)(F)F)cs2)c(-c2cncc(-c3n[nH]c(=O)o3)c2)cn1)NC1CC1` [Example 45, 1-cyclopropyl-3-(5′-(5-oxo-4,5-dihydro-1,3,4-oxadiazol-2-yl)-4-(4-(trifluoromethyl)thiazol-2-yl)-3,3′-bipyridin-6-yl)urea], the inhibition at 1 µM amounted to 103%.

In the case of `O=C(Nc1cc(-c2nc(C(F)(F)F)cs2)c(-c2cncc(-c3n[nH]c(=O)o3)c2)cn1)NC1CCCCC1` [Example 46, 1-cyclohexyl-3-(5′-(5-oxo-4,5-dihydro-1,3,4-oxadiazol-2-yl)-4-(4-(trifluoromethyl)thiazol-2-yl)-3,3′-bipyridin-6-yl)urea], the inhibition at 1 µM is -1%.

On to `CCN(CC)C(=O)Nc1cc(-c2nc(C(F)(F)F)cs2)c(-c2cncc(-c3n[nH]c(=O)o3)c2)cn1` [Example 47, 1,1-diethyl-3-(5′-(5-oxo-4,5-dihydro-1,3,4-oxadiazol-2-yl)-4-(4-(trifluoromethyl)thiazol-2-yl)-3,3′-bipyridin-6-yl)urea], for which the inhibition at 1 µM turned out to be 72%.

On to `O=C(NCC1CC1)Nc1cc(-c2nc(C(F)(F)F)cs2)c(-c2cncc(-c3n[nH]c(=O)o3)c2)cn1` [Example 48, 1-(cyclopropylmethyl)-3-(5′-(5-oxo-4,5-dihydro-1,3,4-oxadiazol-2-yl)-4-(4-(trifluoromethyl)thiazol-2-yl)-3,3′-bipyridin-6-yl)urea], for which the inhibition at 1 µM turned out to be 95%.

As for `O=C(NCC(F)(F)F)Nc1cc(-c2nc(C(F)(F)F)cs2)c(-c2cncc(-c3n[nH]c(=O)o3)c2)cn1` [Example 49, 1-(5′-(5-oxo-4,5-dihydro-1,3,4-oxadiazol-2-yl)-4-(4-(trifluoromethyl)thiazol-2-yl)-3,3′-bipyridin-6-yl)-3-(2,2,2-trifluoroethyl)urea], the inhibition at 1 µM is 99%.

With `O=C(NCC(F)F)Nc1cc(-c2nc(C(F)(F)F)cs2)c(-c2cncc(-c3n[nH]c(=O)o3)c2)cn1` [Example 50, 1-(2,2-difluoroethyl)-3-(5′-(5-oxo-4,5-dihydro-1,3,4-oxadiazol-2-yl)-4-(4-(trifluoromethyl)thiazol-2-yl)-3,3′-bipyridin-6-yl)urea], the inhibition at 1 µM was 105%.

Turning to `CCNC(=O)Nc1cc(-c2nc(C(F)(F)F)c(CNCCN3CCOCC3)s2)c(-c2cncc(-c3n[nH]c(=O)o3)c2)cn1` [Example 51, 1-ethyl-3-(5′-(5-hydroxy-1,3,4-oxadiazol-2-yl)-4-(5-((2-morpholinoethylamino)methyl)-4-(trifluoromethyl)thiazol-2-yl)-3,3′-bipyridin-6-yl)urea trihydrochloride], the inhibition at 1 µM was found to be 98%.

Turning to `CCNC(=O)Nc1cc(-c2nc(C(F)(F)F)c(CNC3CCCCC3)s2)c(-c2cncc(-c3n[nH]c(=O)o3)c2)cn1` [Example 52, 1-(4-(5-((cyclohexylamino)methyl)-4-(trifluoromethyl)thiazol-2-yl)-5′-(5-hydroxy-1,3,4-oxadiazol-2-yl)-3,3′-bipyridin-6-yl)-3-ethylurea hydrochloride], the inhibition at 1 µM is 108%.

In the case of `CCNC(=O)Nc1cc(-c2nc(C(F)(F)F)c(CNC3CCCC3)s2)c(-c2cncc(-c3n[nH]c(=O)o3)c2)cn1` [Example 53, 1-(4-(5-((cyclopentylamino)methyl)-4-(trifluoromethyl)thiazol-2-yl)-5′-(5-hydroxy-1,3,4-oxadiazol-2-yl)-3,3′-bipyridin-6-yl)-3-ethylurea hydrochloride], the inhibition at 1 µM is 109%.

`CCNC(=O)Nc1cc(-c2nc(C(F)(F)F)c(CNCCOC)s2)c(-c2cncc(-c3nnc(C)o3)c2)cn1` [Example 54, 1-ethyl-3-(4-(5-((2-methoxyethylamino)methyl)-4-(trifluoromethyl)thiazol-2-yl)-5′-(5-methyl-1,3,4-oxadiazol-2-yl)-3,3′-bipyridin-6-yl)urea]: the inhibition at 1 µM was 97%.

For the compound `CCNC(=O)Nc1cc(-c2nc(C(F)(F)F)c(CNCCN3CCOCC3)s2)c(-c2cncc(-c3nnc(C)o3)c2)cn1` [Example 55, 1-ethyl-3-(5′-(5-methyl-1,3,4-oxadiazol-2-yl)-4-(5-((2-morpholinoethylamino)methyl)-4-(trifluoromethyl)thiazol-2-yl)-3,3′-bipyridin-6-yl)urea], the inhibition at 1 µM was 96%.

On to `CCNC(=O)Nc1cc(-c2nc(C(F)(F)F)c(CNC3CCCCC3)s2)c(-c2cncc(-c3nnc(C)o3)c2)cn1` [Example 56, 1-(4-(5-((cyclohexylamino)methyl)-4-(trifluoromethyl)thiazol-2-yl)-5′-(5-methyl-1,3,4-oxadiazol-2-yl)-3,3′-bipyridin-6-yl)-3-ethylurea], for which the inhibition at 1 µM turned out to be 96%.

On to `CCNC(=O)Nc1cc(-c2nc(C(F)(F)F)c(CNC3CCCC3)s2)c(-c2cncc(-c3nnc(C)o3)c2)cn1` [Example 57, 1-(4-(5-((cyclopentylamino)methyl)-4-(trifluoromethyl)thiazol-2-yl)-5′-(5-methyl-1,3,4-oxadiazol-2-yl)-3,3′-bipyridin-6-yl)-3-ethylurea], for which the inhibition at 1 µM came to 96%.

As to `CCNC(=O)Nc1cc(-c2nc(C(F)(F)F)c(CNC3CCOCC3)s2)c(-c2cncc(-c3nnc(C)o3)c2)cn1` [Example 58, 1-ethyl-3-(5′-(5-methyl-1,3,4-oxadiazol-2-yl)-4-(5-((tetrahydro-2H-pyran-4-ylamino)methyl)-4-(trifluoromethyl)thiazol-2-yl)-3,3′-bipyridin-6-yl)urea], the inhibition at 1 µM turned out to be 97%.

Take `CCNC(=O)Nc1cc(-c2nc(C(F)(F)F)c(C(=O)NCCOC)s2)c(-c2cncc(-c3n[nH]c(=O)o3)c2)cn1` [Example 59, 2-(6-(3-ethylureido)-5′-(5-oxo-4,5-dihydro-1,3,4-oxadiazol-2-yl)-3,3′-bipyridin-4-yl)-N-(2-methoxyethyl)-4-(trifluoromethyl)thiazole-5-carboxamide]: the inhibition at 1 µM stood at 98%.

`CCNC(=O)Nc1cc(-c2nc(C(F)(F)F)c(C(=O)NCCOC)s2)c(-c2cncc(-c3nnc(C)o3)c2)cn1` [Example 60, 2-(6-(3-ethylureido)-5′-(5-methyl-1,3,4-oxadiazol-2-yl)-3,3′-bipyridin-4-yl)-N-(2-methoxyethyl)-4-(trifluoromethyl)thiazole-5-carboxamide]: the inhibition at 1 µM worked out at 92%.
